Legend:
[1] = for mass density: 101 kPa, Buoyancy - hydrostatic balance; for mass density / surface tension liquid-gas: Liquid; for surface tension liquid-gas: Maximal bubble pressure
[2] = refractive index (Na D-line) (dimensionless); details: 101 kPa, Liquid, Standard Abbe refractometry

CCCCn1cc[n+](C)c1.NCC(=O)[O-] [1-butyl-3-methylimidazolium glycinate]
Details | mass density, [1] [kg/m3] | refractive index, [2] | surface tension liquid-gas, [1] [mN/m]
283.15 K | 1120.6 | – | 44.3
288.15 K | 1117.4 | – | 44
293.15 K | 1114.2 | 1.5091 | 43.8
298.15 K | 1110.9 | 1.5085 | 43.5
303.15 K | 1107.8 | 1.5068 | 43.2
308.15 K | 1104.7 | 1.5049 | 42.9
313.15 K | 1101.6 | 1.5038 | 42.6
318.15 K | 1098.6 | 1.5029 | 42.2
323.15 K | 1095.5 | 1.5019 | 41.8
328.15 K | 1092.3 | – | 41.5

Details | Glass transition temperature [°C]
[1], Glass, DTA | -81.80
